Results: ChEMBL document CHEMBL1147193, “New 5-substituted thiazolo[3,2-b][1,2,4]triazol-6-ones: synthesis and anticancer evaluation” (2007)

What was measured:
Format in all cases: functional
[1] = test system: OVCAR-3; experiment: Growth inhibition of human OVCAR-3 cells after 48 hrs by SRB protein assay; conditions: OVCAR-3, 48 h
[2] = test system: OVCAR-5; experiment: Growth inhibition of human OVCAR5 cells after 48 hrs by SRB protein assay; conditions: OVCAR-5, 48 h
[3] = test system: OVCAR-8; experiment: Growth inhibition of human OVCAR8 cells after 48 hrs by SRB protein assay; conditions: OVCAR-8, 48 h
[4] = test system: SK-OV-3; experiment: Growth inhibition of human SK-OV-3 cells after 48 hrs by SRB protein assay; conditions: SK-OV-3, 48 h
[5] = test system: ACHN; experiment: Growth inhibition of human ACHN cells after 48 hrs by SRB protein assay
[6] = test system: CAKI-1; experiment: Growth inhibition of human CAKI1 cells after 48 hrs by SRB protein assay; conditions: CAKI-1, 48 h
[7] = test system: CCRF-CEM; experiment: Growth inhibition of human CCRF-CEM cells after 48 hrs by SRB protein assay
[8] = test system: BT-549; experiment: Growth inhibition of human BT549 cells after 48 hrs by SRB protein assay; conditions: BT-549, 48 h
[9] = test system: Hs-578T; experiment: Growth inhibition of human HS578T cells after 48 hrs by SRB protein assay
[10] = test system: RPMI-8226; experiment: Growth inhibition of human RPMI8226 cells after 48 hrs by SRB protein assay; conditions: RPMI-8226, 48 h
[11] = test system: NCI-H460; experiment: Anticancer activity against human NCI-H460 cells assessed as growth of cells at 100 uM relative to untreated cells
[12] = test system: SF-268; experiment: Anticancer activity against human SF268 cells assessed as growth of cells at 100 uM relative to untreated cells
[13] = test system: MCF7; experiment: Anticancer activity against human MCF7 cells assessed as growth of cells at 100 uM relative to untreated cells
[14] = test system: K562; experiment: Growth inhibition of human K562 cells after 48 hrs by SRB protein assay; conditions: K562, 48 h
[15] = test system: MOLT-4; experiment: Growth inhibition of human MOLT4 cells after 48 hrs by SRB protein assay; conditions: MOLT-4, 48 h
[16] = test system: EKVX; experiment: Growth inhibition of human EKVX cells after 48 hrs by SRB protein assay
[17] = test system: HOP-62; experiment: Growth inhibition of human HOP62 cells after 48 hrs by SRB protein assay; conditions: HOP-62, 48 h
[18] = test system: HOP-92; experiment: Growth inhibition of human HOP92 cells after 48 hrs by SRB protein assay; conditions: HOP-92, 48 h
[19] = test system: NCI-H226; experiment: Growth inhibition of human NCI-H226 cells after 48 hrs by SRB protein assay; conditions: NCI-H226, 48 h
[20] = test system: NCI-H322M; experiment: Growth inhibition of human NCI-H322M cells after 48 hrs by SRB protein assay
[21] = test system: NCI-H460; experiment: Growth inhibition of human NCI-H460 cells after 48 hrs by SRB protein assay; conditions: NCI-H460, 48 h
[22] = test system: NCI-H522; experiment: Growth inhibition of human NCI-H522 cells after 48 hrs by SRB protein assay; conditions: NCI-H522, 48 h
[23] = test system: HCC 2998; experiment: Growth inhibition of human HCC2998 cells after 48 hrs by SRB protein assay; conditions: HCC 2998, 48 h
[24] = test system: HCT-116; experiment: Growth inhibition of human HCT116 cells after 48 hrs by SRB protein assay; conditions: HCT-116, 48 h
[25] = test system: HCT-15; experiment: Growth inhibition of human HCT15 cells after 48 hrs by SRB protein assay; conditions: HCT-15, 48 h
[26] = test system: HT-29; experiment: Growth inhibition of human HT29 cells after 48 hrs by SRB protein assay; conditions: HT-29, 48 h
[27] = test system: U-251; experiment: Growth inhibition of human U251 cells after 48 hrs by SRB protein assay; conditions: U-251, 48 h
[28] = Growth inhibition of human MALME 3M cells after 48 hrs by SRB protein assay
[29] = test system: M14; experiment: Growth inhibition of human M14 cells after 48 hrs by SRB protein assay; conditions: M14, 48 h
[30] = test system: SK-MEL-28; experiment: Growth inhibition of human SK-MEL-28 cells after 48 hrs by SRB protein assay; conditions: SK-MEL-28, 48 h
[31] = test system: SK-MEL-5; experiment: Growth inhibition of human SK-MEL-5 cells after 48 hrs by SRB protein assay; conditions: SK-MEL-5, 48 h
[32] = test system: UACC-257; experiment: Growth inhibition of human UACC257 cells after 48 hrs by SRB protein assay; conditions: UACC-257, 48 h
[33] = test system: UACC-62; experiment: Growth inhibition of human UACC62 cells after 48 hrs by SRB protein assay; conditions: UACC-62, 48 h
[34] = test system: RXF 393; experiment: Growth inhibition of human RXF393 cells after 48 hrs by SRB protein assay; conditions: RXF 393, 48 h
[35] = test system: TK-10; experiment: Growth inhibition of human TK10 cells after 48 hrs by SRB protein assay; conditions: TK-10, 48 h
[36] = test system: UO-31; experiment: Growth inhibition of human UO31 cells after 48 hrs by SRB protein assay; conditions: UO-31, 48 h
[37] = test system: MCF7; experiment: Growth inhibition of human MCF7 cells after 48 hrs by SRB protein assay; conditions: MCF7, 48 h
[38] = test system: MDA-MB-435; experiment: Growth inhibition of human MDA-MB-435 cells after 48 hrs by SRB protein assay; conditions: MDA-MB-435, 48 h
[39] = test system: T47D; experiment: Growth inhibition of human T47D cells after 48 hrs by SRB protein assay
[40] = Growth inhibition of human MDA-MB-231/ATCC cells after 48 hrs by SRB protein assay; conditions: MDA-MB-231, 48 h

O=C(CC1Sc2ncnn2C1=O)Nc1ccc(Br)cc1 (configuration not stated)
GI50 [1]: 20 µM | TGI ([1]; read-out: Log TGI (converted)): 37.2 µM | GI50 [2]: 16.2 µM | TGI ([2]; read-out: Log TGI (converted)): 29.5 µM | GI50 [3]: 18.2 µM | TGI ([3]; read-out: Log TGI (converted)): 38 µM | GI50 [4]: > 100 µM | TGI ([4]; read-out: Log TGI (converted)): > 100 µM | GI50 [5]: 15.1 µM | TGI ([5]; read-out: Log TGI (converted)): 28.2 µM | GI50 [6]: 20.4 µM | TGI ([6]; read-out: Log TGI (converted)): 43.7 µM | GI50 [7]: 21.4 µM | TGI ([7]; read-out: Log TGI (converted)): 55 µM | GI50 [8]: > 100 µM | TGI ([8]; read-out: Log TGI (converted)): > 100 µM | GI50 [9]: 7.24 µM | TGI ([9]; read-out: Log TGI (converted)): 20 µM | GI50 [10]: 23.4 µM | TGI ([10]; read-out: Log TGI (converted)): 64.6 µM | Activity [11]: 0% | Activity [12]: 100% | Activity [13]: 0% | GI50 [14]: 26.3 µM | TGI ([14]; read-out: Log TGI (converted)): 79.4 µM | GI50 [15]: 25.1 µM | TGI ([15]; read-out: Log TGI (converted)): 97.7 µM | GI50 [16]: 31.6 µM | TGI ([16]; read-out: Log TGI (converted)): > 100 µM | GI50 [17]: > 100 µM | TGI ([17]; read-out: Log TGI (converted)): > 100 µM | GI50 [18]: 22.4 µM | TGI ([18]; read-out: Log TGI (converted)): 49 µM | GI50 [19]: 20 µM | TGI ([19]; read-out: Log TGI (converted)): 45.7 µM | GI50 [20]: > 100 µM | TGI ([20]; read-out: Log TGI (converted)): > 100 µM | GI50 [21]: > 100 µM | TGI ([21]; read-out: Log TGI (converted)): > 100 µM | GI50 [22]: 20.4 µM | TGI ([22]; read-out: Log TGI (converted)): 57.5 µM | GI50 [23]: > 100 µM | TGI ([23]; read-out: Log TGI (converted)): > 100 µM | GI50 [24]: 15.8 µM | TGI ([24]; read-out: Log TGI (converted)): 29.5 µM | GI50 [25]: 14.8 µM | TGI ([25]; read-out: Log TGI (converted)): 28.2 µM | GI50 [26]: 28.2 µM | TGI ([26]; read-out: Log TGI (converted)): > 100 µM | GI50 [27]: 16.6 µM | TGI ([27]; read-out: Log TGI (converted)): 31.6 µM | GI50 [28]: 14.5 µM | TGI ([28]; read-out: Log TGI (converted)): 31.6 µM | GI50 [29]: 15.8 µM | TGI ([29]; read-out: Log TGI (converted)): 29.5 µM | GI50 [30]: 23.4 µM | TGI ([30]; read-out: Log TGI (converted)): 70.8 µM | GI50 [31]: 18.6 µM | TGI ([31]; read-out: Log TGI (converted)): 38.9 µM | GI50 [32]: 17.4 µM | TGI ([32]; read-out: Log TGI (converted)): 33.1 µM | GI50 [33]: > 100 µM | TGI ([33]; read-out: Log TGI (converted)): > 100 µM | GI50 [34]: 12.9 µM | TGI ([34]; read-out: Log TGI (converted)): 31.6 µM | GI50 [35]: 17.4 µM | TGI ([35]; read-out: Log TGI (converted)): 31.6 µM | GI50 [36]: 18.6 µM | TGI ([36]; read-out: Log TGI (converted)): 38 µM | GI50 [37]: 26.9 µM | TGI ([37]; read-out: Log TGI (converted)): 74.1 µM | GI50 [38]: 31.6 µM | TGI ([38]; read-out: Log TGI (converted)): > 100 µM | GI50 [39]: 18.2 µM | TGI ([39]; read-out: Log TGI (converted)): 45.7 µM | GI50 [40]: 17 µM | TGI ([40]; read-out: Log TGI (converted)): 36.3 µM
